Molecular target: T1, glyc-HS2ST (glycosylated human HS2ST), WT (Homo sapiens, UniProt Q7LGA3)
T1 construct: the human HS2ST catalytic domain region comprising of 328 amino acid residues; His8 (N, cleaved yes); AviTag (N, cleaved yes); superfolder GFP (N, cleaved yes); made in house; host or cells: HEK293-F (transient transfection, secreted)
T1 sequence (Q7LGA3 29-356 limits assumed): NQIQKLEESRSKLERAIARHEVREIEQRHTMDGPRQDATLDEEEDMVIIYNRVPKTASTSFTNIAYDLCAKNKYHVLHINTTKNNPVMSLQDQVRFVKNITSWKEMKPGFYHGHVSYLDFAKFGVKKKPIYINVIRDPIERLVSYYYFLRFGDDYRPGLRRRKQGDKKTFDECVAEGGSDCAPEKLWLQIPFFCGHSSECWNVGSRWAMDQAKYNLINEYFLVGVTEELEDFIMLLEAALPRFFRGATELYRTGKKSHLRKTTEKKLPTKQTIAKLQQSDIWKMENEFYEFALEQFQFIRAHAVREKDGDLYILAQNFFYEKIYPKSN
Experiment: BLI equilibrium binding, glyc-HS2ST WT
Settings: BLI saturation binding curves, biotin-PEG4-linked hexasaccharide immobilised on sensor, n = 3, ± standard error of fit, 25 °C, PBS pH 7.8
Text: HS-protein binding studies often utilize biologically-derived oligosaccharides of heterogeneous length and sulfation[34],[35]; however, the synthesis of oligosaccharides with defined length and specific sulfation patterns has recently become possible. We employed biolayer interferometry (BLI) to determine equilibrium surface binding constants (KD) for HS2ST with synthetic HS hexasaccharides (Fig. 1 and Supplementary Table 1). The HS compounds were attached to the BLI biosensor surface to conserve sample and to ensure a significant signal upon protein binding. The HS compounds contained a biotinylated PEG4 linker at the reducing terminus, enhancing the likelihood of a consistent presentation of the linear glycan on the sensor surface, in contrast to immobilizations via intra-chain modifications. […]
An expression construct was generated encoding the truncated catalytic domain of human HS2ST as an NH2-terminal fusion protein in the pGEn2 expression vector essentially as described in prior studies. […] The recombinant human HS2ST was expressed as a soluble secreted protein by transient transfection of suspension culture HEK293-F cells (FreeStyle^TM 293-Fcells, Thermo Fisher Scientific, Waltham MA) maintained at 0.5–3.0 × 10^6 cells/ml in a humidified CO2 platform shaker incubator at 37 °C with 55% humidity. […]

- Kd: 138 ± 19 nM
Substance: GlcNS-GlcA-GlcNS-IdoA2S-GlcNS-GlcA~ [Compound 2]
